The values below come from ChEMBL document CHEMBL6103639, “Structure-Based Development of 3,4-Fused Tricyclic Benzofuran Derivatives as Polyketide Synthase 13 Inhibitors with Negligible hERG Inhibition” (J Med Chem, 2025).

Common to all, as to assay type: functional
Experiment [1] deals with Mycobacterium tuberculosis. Kind of experiment: Antitubercular activity against Mycobacterium tuberculosis N1640K mutant assessed as reduction in microbial growth by microplate alamar blue assay. On the technique in general: The colour change of resazurin is a common sign of viable cells or microbes.
Experiment [2] relates to Mycobacterium tuberculosis. Briefly: Antitubercular activity against Mycobacterium tuberculosis D1644G mutant assessed as reduction in microbial growth by microplate alamar blue assay.
Experiment [3] relates to Mycobacterium tuberculosis. Briefly: Antitubercular activity against Mycobacterium tuberculosis N1640S mutant assessed as reduction in microbial growth by microplate alamar blue assay.
For experiment [4], the system named is Mycobacterium tuberculosis. Kind of experiment: Antitubercular activity against Mycobacterium tuberculosis A1667V mutant assessed as reduction in microbial growth by microplate alamar blue assay.

Turning to `CN1CN(CC2CCC2)Cc2c(O)ccc3oc(-c4ccc(O)cc4)c(c23)C1=O`, the MIC (commonly the lowest concentration found to suppress growth) in experiment [1] is above 64 µg/mL; in experiment [2], above 64 µg/mL; in experiment [3] it was above 64 µg/mL; in experiment [4], 8 µg/mL.
With `CN1CN(CC2CC2)Cc2c(O)ccc3oc(-c4ccc(O)cc4)c(c23)C1=O`, the MIC in experiment [1], in experiment [2], in experiment [3] and in experiment [4] was above 64 µg/mL each time.
Take `CN1CN(C2CCCC2)Cc2c(O)ccc3oc(-c4ccc(O)cc4)c(c23)C1=O`: the MIC in experiment [1] is above 64 µg/mL; in experiment [2], above 64 µg/mL; in experiment [3], above 64 µg/mL; in experiment [4], 32 µg/mL.
